Key:
[1] = tested on: MCF-7 cells; assay: Sulforhodamine B (SRB) antiproliferative assay, MCF-7; type: cell-based, human; details: for IC50: Homo sapiens, MCF7, 48 h, SRB; for IC50 / inhibition on cell proliferation: MCF-7 cells; for inhibition on cell proliferation: 100 μM dose, SRB screening; for Selectivity index (SI): MCF-7 relative to healthy HUVEC cells
Description: (§1) MCF-7 (human breast cancer) and HUVEC (human umbilical vein endothelial) cell lines were cultured and maintained in high glucose Dulbecco’s modified Eagle medium supplemented with 10% FBS (Gibco Life Technologies, Grand Island, NY, USA), 100 U/mL penicillin, and […]. The MDA–MB-231 (human breast cancer) cell line was cultured in Roswell Park Memorial Institute 1640 (RPMI 1640) medium supplemented with 10% FBS (Gibco Life Technologies), 100 U/mL penicillin, and […]. All cells were passaged by trypsin EDTA when they reached 60%–70% confluence. The cells were cultivated at 37 °C in humidified air containing 5% CO2.
(§2) The antiproliferative effects of compounds on breast cancer cells were determined by the sulforhodamine B (SRB) assay. In short, cells were seeded in a 96-well cell culture plate at a density of 5 × 10^4 cells/mL and the plate was incubated for 24 h in a CO2 incubator at 37 °C. MCF-7, MDA–MB-231, and HUVEC cells were cultured for 48 h with escalating doses (1, 5, 10, 25, 50, and 100 μM) of the derivatives for determination of the IC50 values. After incubation, the medium was removed from the wells and each well was incubated with a 10% trichloroacetic acid (TCA) solution for fixation at +4 °C for 1 h. The wells were washed five times with distilled water (dH2O) to get rid of the TCA and the plate was left to dry. Fresh 0.04 (m/V) SRB dye solution was added to each well, followed by incubation for 30 min at room temperature. The plate was then dried using an air dryer after being washed four times with 1% acetic acid solution. The wells were incubated in 10 mM of the tris-base solution (pH 10.5) for 10 min on a shaker and absorbance values were measured at 565 nm with a microplate reader (Tecan Infinite® 200 PRO, Switzerland). The IC50 values of the compounds were recorded using the software GraphPad Prism 5.

[2] = tested on: MDA–MB-231 cells; assay: Sulforhodamine B (SRB) antiproliferative assay, MDA–MB-231; type: cell-based, human; details: for IC50: Homo sapiens, 48 h, SRB; for IC50 / inhibition on cell proliferation: MDA–MB-231 cells; for inhibition on cell proliferation: 100 μM dose, SRB screening; for Selectivity index (SI): MDA–MB-231 relative to healthy HUVEC cells
Description: as §1, §2

[3] = tested on: HUVEC cells; assay: Sulforhodamine B (SRB) cytotoxicity assay, HUVEC healthy cells; type: cell-based; details: Homo sapiens, 48 h
Description: as §1
The antiproliferative effects of compounds on breast cancer cells were determined by the sulforhodamine B (SRB) assay. In short, cells were seeded in a 96-well cell culture plate at a density of 5 × 10^4 cells/mL and the plate was incubated for 24 h in a CO2 incubator at 37 °C. MCF-7, MDA–MB-231, and HUVEC cells were cultured for 48 h with escalating doses (1, 5, 10, 25, 50, and 100 μM) of the derivatives for determination of the IC50 values. […] The wells were incubated in 10 mM of the tris-base solution (pH 10.5) for 10 min on a shaker and absorbance values were measured at 565 nm with a microplate reader (Tecan Infinite® 200 PRO, Switzerland). The IC50 values of the compounds were recorded using the software GraphPad Prism 5.

[4] = tested on: Bax/Bcl-2 genes; assay: Bax/Bcl-2 mRNA expression by qPCR in MDA–MB-231 cells; type: cell-based, human
Description: The mRNA levels of the Bax and Bcl-2 genes were analyzed using a qPCR protocol, following the procedure described previously. Briefly, total RNA was extracted from MDA–MB-231 cells using the Total® RNA Purification Plus Kit, following the manufacturer’s instructions (Norgen Biotek, Thorold, ON, Canada). Subsequently, synthesis of cDNA was carried out using the high-capacity cDNA reverse transcription kit (Applied Biosystems, Foster City, CA, USA). The diluted cDNA samples were combined with specific Taqman probes and Taqman PCR Master Mix, and the amplification was recorded using Applied Biosystems 7500 Real-Time PCR systems (Applied Biosystems, Thermo Fisher Scientific) for qPCR. Changes in mRNA expression levels were determined using the comparative ΔΔCT method, with β-actin serving as an endogenous control for the qPCR analysis.

Compound: FC(F)(F)c1ccc(N=Cc2cn3cccnc3n2)cc1 [3e, N-(4-Trifluoromethylphenyl)-1-(imidazo[1,2-a]pyrimidin-2-yl)methanimine]
- melting point: 224 to 226 °C

Compound: CCN(CC)c1ccc(/N=C/c2cn3cccnc3n2)cc1 [3d, N-(4-(N^ı,N^ı-Diethylamino)phenyl)-1-(imidazo[1,2-a]pyrimidin-2-yl)methanimine]
- IC50 [1]: 43.4 µM
- inhibition on cell proliferation [1]: greatest inhibition
- Selectivity index (SI) [1]: 1.6
- IC50 [2]: 35.9 µM
- inhibition on cell proliferation [2]: greatest inhibition
- Selectivity index (SI) [2]: 2.0
- IC50 [3]: 71.4 µM
- Bax/Bcl-2 ratio (mRNA expression level) ([4]; IC50 dose (4d: 35.1 μM)): did not have significant effects
- Bax/Bcl-2 ratio (mRNA expression level) ([4]; IC50 × 2 dose (4d: 70.2 μM)): did not have significant effects
- melting point: 182 to 183 °C

Compound: COc1ccc(N=Cc2cn3cccnc3n2)cc1 [3c, N-(4-Methoxyphenyl)-1-(imidazo[1,2-a]pyrimidin-2-yl)methanimine]
- melting point: 191 to 192 °C

Compound: c1ccc2c(NCc3cn4cccnc4n3)cccc2c1 [4b, N-(Naphthalen-1-yl)-1-(imidazo[1,2-a]pyrimidin-2-yl)methanamine]
- melting point: 217 to 219 °C

Compound: c1ccc(NCc2cn3cccnc3n2)cc1 [4a, N-(Phenyl)-1-(imidazo[1,2-a]pyrimidin-2-yl)methanamine]
- melting point: 194 to 197 °C

Compound: FC(F)(F)c1ccc(NCc2cn3cccnc3n2)cc1 [4e, N-(4-Trifluoromethylphenyl)-1-(imidazo[1,2-a]pyrimidin-2-yl)methanamine]
- melting point: 217 to 218 °C

Compound: COc1ccc(NCc2cn3cccnc3n2)cc1 [4c, N-(4-Methoxyphenyl)-1-(imidazo[1,2-a]pyrimidin-2-yl)methanamine]
- melting point: 175 to 176 °C

Compound: CCN(CC)c1ccc(NCc2cn3cccnc3n2)cc1 [4d, N-(4-(N^ı,N^ı-Diethylamino)phenyl)-1-(imidazo[1,2-a]pyrimidin-2-yl)methanamine]
- IC50 [1]: 39 µM
- inhibition on cell proliferation [1]: greatest inhibition
- Selectivity index (SI) [1]: 1.5
- IC50 [2]: 35.1 µM
- inhibition on cell proliferation [2]: greatest inhibition
- Selectivity index (SI) [2]: 1.6
- IC50 [3]: 57 µM
- Bax/Bcl-2 ratio (mRNA expression level) ([4]; IC50 dose (4d: 35.1 μM)): 1.5 fold
- Bax/Bcl-2 ratio (mRNA expression level) ([4]; IC50 × 2 dose (4d: 70.2 μM)): 1.8 fold
- melting point: 146 to 148 °C
